As usually defined, the NOAEL is the highest dose or exposure tested at which no adverse effect was seen. The term LOAEL denotes the lowest dose or exposure tested at which an adverse effect was seen.

Several values for one entry are separate records, joined by “and”; a condition that tells them apart may be missing. Equal entries are not always repeated.

Data on 13 compounds can be found in EPA's ToxValDB 9.5.

Series [1] relates to Rattus norvegicus. Particulars: for LEL: uterotrophic, Active; for NOEL / LOEL: Hershberger, gavage.
Series [2] deals with Mus musculus. Particulars: uterotrophic, Active.
Series [3] relates to Rattus norvegicus. The following applies: oral; for LOAEL: Fischer 344.
In series [4] the test system is Canidae. Particulars: chronic, oral, Dog Other.
For series [5], the system named is Canidae. Particulars: chronic, oral, M/F, Dog Other.
Series [6] deals with Rattus norvegicus. Particulars: subchronic, oral, diet, Fischer 344, Body Weight Changes: decrease + Food Consumption + Hematology: Hgb decrease, RBC decrease, MetHgb increase + Blood Chemistry: TP decrease, ….
Series [7] relates to Rattus norvegicus. The following applies: chronic; duration: 104 weeks; oral; diet; Liver: Increased weight.
The mark [8] stands for this setting: duration: 3 days, injection, subcutaneous.
Where [9] appears, read: duration: 2 years, diet, increased hemosiderin deposition, serum alkaline phosphatase, and liver weight (females).
Where [10] appears, read: duration: 2 years, diet, increased serum alkaline phosphatase and liver weight, and hepatic lesions.
Where [11] appears, read: duration: 7 days, oral, Sprague-Dawley, active + Antiandrogenic + anti-androgenic + reduced SV and caudal epididymal wt / PPS delayed.
The mark [12] stands for this setting: duration: 10 days, oral, Wistar, active + Antiandrogenic + anti-androgenic + reduced SV and caudal epididymal wt / PPS delayed.
[13] abbreviates: duration: 10 days, oral, Sprague-Dawley, active + Negative + Antiandrogenic + anti-androgenic + significant increase in liver wt at 100 / decrease in AST wt and serum Testosterone ….

On to `C#C[C@]1(O)CC[C@H]2[C@@H]3CCc4cc(OC)ccc4[C@H]3CC[C@@]21C` [Mestranol], for which the LEL in series [1] (duration: 3 days, injection, intraperitoneal) came to 0.001 mg/day; in series [1] (duration: 3 days, oral) it was 0.01 mg/kg-day; in series [1] (duration: 14 days, oral), 0.001 mg/day; in series [2] (setting [8]) it was 0.5 µg/0.1 mL. Also, in series [2] (duration: 3 days, oral), the “LEL (fractional dose of pill)” value was 0.001.

For the compound `CCCCCCCCCC` [Decane], the NOAEL in series [3] (subchronic, duration: 8 weeks, gavage, M/F, Sprague-Dawley) was 1000 mg/kg-day.

Turning to `C#CC(C)(C)NC(=O)c1cc(Cl)cc(Cl)c1` [Propyzamide], the NOEL in series [4] (duration: 2 years, diet, None Observed) amounted to 7.5 mg/kg-day; in series [5] (duration: 2 years, diet, no effects), 7.5 mg/kg-day; in series [1] (duration: 10 days, oral, Sprague-Dawley, active + Negative + Antiandrogenic + anti-androgenic + two studies / first one doses were high but effects observed on AST wt and delayed …) it was 40 mg/kg-day.

In the case of `CC(C)N(C(=O)SCC(Cl)=C(Cl)Cl)C(C)C` [Tri-allate], in series [4] (duration: 24 months, diet, Liver: Effects + Spleen: Effects), the NOAEL worked out at 1.27 mg/kg-day. In series [5] (setting [9]), this compound gave an LOAEL of 4.25 mg/kg-day and an NOAEL of 1.27 mg/kg-day.

With `CCC(CC)Nc1c([N+](=O)[O-])cc(C)c(C)c1[N+](=O)[O-]` [Pendimethalin], the NOEL in series [4] (duration: 2 years, capsule, Liver: Effects) was found to be 12.5 mg/kg-day; in series [5] (setting [10]) it was 12.5 mg/kg-day. Besides, the LEL in series [5] (setting [10]) came out at 50 mg/kg-day; in series [1] (duration: 3 days, oral) it was 300 mg/kg-day.

The compound `Clc1cc(Cl)c(Cl)c(-c2cc(Cl)c(-c3cc(Cl)c(Cl)c(Cl)c3)c(Cl)c2Cl)c1` [Aroclor 5460] registered an NOAEL in series [3] (chronic, duration: 95 days, diet, M, albino) of 7.13 mg/kg-day.

`ClC=C(Cl)CCl` [1,2,3-Trichloropropene] came in with an NOAEL in series [3] (short-term, duration: 4 weeks, gavage, M/F, Crl:CD(SD), respiratory) of 30 mg/kg-day.

In turn, `Cc1ccc([N+](=O)[O-])cc1` [4-Nitrotoluene] returned an LOAEL in series [3] (subchronic, duration: 13 weeks, diet, M, Immune) of 42 mg/kg-day. In addition, the NOEL in series [6] (F) was less than 44 mg/kg-day; in series [6] (M/F), less than 60 mg/kg-day. Besides, the LEL in series [1] (duration: 1 days, injection, intraperitoneal) is 30 mg/kg-day.

Consider `Nc1cccc([N+](=O)[O-])c1` [3-Nitroaniline], for which the LOAEL in series [3] (short-term, duration: 28 days, gavage, M/F) was found to be 15 mg/kg-day.

With `CC(COc1ccc(C(C)(C)C)cc1)OS(=O)OCCCl` (centres undefined) [Aramite], the NOAEL in series [4] (duration: 52 weeks, diet, Liver: Degeneration) came out at 10 mg/kg-day; in series [7], 7.8 mg/kg-day.

Take `O=C(c1ccc(O)cc1O)c1ccc(O)cc1O` [2,2',4,4'-Tetrahydroxybenzophenone]: the LEL in series [1] (setting [8]) was 100 mg/kg-day and 200 mg/kg-day and 230 mg/kg-day; in series [1] (duration: 5 days, oral), 100 mg/kg-day and 250 mg/kg-day; in series [1] (duration: 90 days, oral, diet), 185 mg/kg-day; in series [2] (duration: 7 days, injection, subcutaneous) it was 300 mg/kg-day; in series [2] (duration: 7 days, oral), 1000 mg/kg-day.

In the case of `CON(C)C(=O)Nc1ccc(Cl)c(Cl)c1` [Linuron], in series [4] (duration: 2 years, diet, Blood: Hematological effects), the LOAEL was found to be 0.625 mg/kg-day. The compound further gave an LEL in series [5] (duration: 2 years, diet, abnormal blood pigment) of 0.625 mg/kg-day. Besides, the LOEL in series [1] (setting [11]) was 40 mg/kg-day and 100 mg/kg-day; in series [1] (setting [12]), 40 mg/kg-day and 100 mg/kg-day. In addition, the NOEL in series [1] (setting [11]) is 20 mg/kg-day; in series [1] (duration: 10 days, oral, Sprague-Dawley, inactive + Negative + anti-androgenic + reduced SV and caudal epididymal wt / PPS delayed), 20 mg/kg-day; in series [1] (setting [12]), 20 mg/kg-day and 10 mg/kg-day; in series [1] (duration: 10 days, oral, Wistar, inactive + Negative + anti-androgenic + reduced SV and caudal epididymal wt / PPS delayed), 20 mg/kg-day; in series [1] (duration: 10 days, oral, wistar, active + Antiandrogenic + anti-androgenic + reduced SV and caudal epididymal wt / PPS delayed), 20 mg/kg-day and 30 mg/kg-day and 10 mg/kg-day.

In series [4] (duration: 1 years, diet, Erythrocytes: Decreased count), `CCCCN(CC)c1c([N+](=O)[O-])cc(C(F)(F)F)cc1[N+](=O)[O-]` [Benfluralin] showed an NOAEL of 25 mg/kg-day. In series [5] (reduced erythrocyte counts), this compound yielded an LOAEL of 125 mg/kg-day and an NOAEL of 25 mg/kg-day. For the same compound, in series [1] (setting [13]), the LOEL is 400 mg/kg-day and 750 mg/kg-day; the NOEL was 100 mg/kg-day and 250 mg/kg-day.
